Assay results published in patent publication US9757350B2, “Small molecule inhibitors of replication protein A that also act synergistically with cisplatin” (Indiana University Research and Technology Corp., priority 2010, dated 2017).

What was measured:
H1299 cells = experiment: Apoptosis by Annexin V/PI staining, H1299; assay type: cell-based; conditions: H1299, Annexin V and propidium iodine staining
Description: (§1) Referring now to FIG. 13A. Cell Viability and Apoptosis of Ovarian and p53 null Lung Cancer Cell Lines. A) Ovarian cancer cell line A2780 and the p53 null lung cancer cell line, H1299, were treated with log dosing of MCI13E and viability analyzed via CCK-8 metabolic assay as described in Methods. Data is presented as cell survival which was determined as a percent of the untreated control cells and represents the average and standard deviation of triplicate experiments Referring now to FIG. 13B.
Flow Cytometry—After determining the SMI cytotoxicity, H460, A549 and H1299 lung cancer cell lines were analyzed for apoptosis using the Annexin V-FITC/Propidium Iodide (PI) Vybrant® Apoptosis Assay kit (Invitrogen, Gaithersburg, Md.). Cells were plated in 6-well dishes (2×10^5 cells total), treated for 24 (H1299) or 48 (H460 and A549) hours with increasing concentrations of SMI. Following treatment, both adherent and non-adherent cells were collected, processed via the manufacturer's protocol (Invitrogen) and analyzed on a FACScan flow cytometer (Becton Dickson, San Jose, Calif.). Data was analyzed using WinDMI software (The Scripps Research Institute, Can Diego, Calif.) and results are presented as a percentage of control (untreated cells).

SpPot1(DBD) = target: T1, SpPot1(DBD) (Schizosaccharomyces pombe, UniProt O13988); experiment: SpPot1(DBD) ssDNA binding; conditions: protein pre-incubated with SMI
T1 construct: the Schizosaccharomyces pombe Pot1(DBD) domain (11) were studied
T1 sequence (O13988 1-389 limits assumed): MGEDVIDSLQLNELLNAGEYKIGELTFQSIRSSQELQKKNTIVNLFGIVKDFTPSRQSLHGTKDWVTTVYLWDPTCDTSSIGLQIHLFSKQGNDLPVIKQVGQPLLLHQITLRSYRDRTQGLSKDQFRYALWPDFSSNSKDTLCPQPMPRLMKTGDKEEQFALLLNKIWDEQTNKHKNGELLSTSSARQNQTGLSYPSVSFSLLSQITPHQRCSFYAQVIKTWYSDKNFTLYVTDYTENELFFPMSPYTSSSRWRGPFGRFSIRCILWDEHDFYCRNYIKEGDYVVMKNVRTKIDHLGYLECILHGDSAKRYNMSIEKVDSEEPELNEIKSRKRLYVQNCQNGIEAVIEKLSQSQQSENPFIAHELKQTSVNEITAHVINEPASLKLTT
Description: In order to study the specificity of the CheSS19, and MCI13E/F compounds, their effects on two ssDNA binding proteins which use OB-folds for recognition and binding of ssDNA, E. coli SSB (6) and the Schizosaccharomyces pombe Pot1(DBD) domain (11) were studied. The EcSSB protein is a non-sequence-specific ssDNA binding protein, whereas the SpPot1(DBD) protein is a telomere-specific, ssDNA binding protein. In these experiments, protein was pre-incubated with the SMIs, as was done for the RPA experiments, prior to addition of radiolabeled ssDNA to the reactions.

p21 = experiment: Quantitative real-time PCR of p21 mRNA; assay type: cell-based; conditions: A549, versus untreated control
Description: Real-Time PCR—A549 cells were plated in 10 cm dishes at 1.5×10^6, allowed to adhere, and treated for 24-48 hours with cisplatin or SMIs (5 μM). Referring now to FIG. 16B, Western blot of cells treated sequentially. For sequential treatment, A549 cells were exposed to cisplatin for 24 hours followed by the addition of SMIs for another 24 hours as above. Referring now to FIG. 16A, A549 cells were treated sequentially or concurrently with cisplatin (5 μM) and MCI13E or MCI13F for 24 total hours. Lysates were probed for p53-ser15-phosphorylation or phosphorylated-ATM. GAPDH was probed as a loading control. Concurrently treated cells were incubated simultaneously with both cisplatin and MCIs for 24 hours. RNA was extracted using RNeasy minikit (Qiagen, Germantown, Md.) per manufacturer's protocol. cDNA was generated using Applied Biosystem's (ABI) High Capacity RNA-to-cDNA kit. Validated gene primer/probe sets, also from ABI, were used for Quantitative Real Time-PCR. ABI's ΔΔCT Relative Quantification methodology was used for the analyses (applied Biosystems). Data were normalized to the housekeeping gene GAPDH and calibrated to the mock treated samples. Results presented are the average of two separate cell treatments/RNA isolations with duplicate Taqman Assays per RNA sample set.
Referring now to FIG. 15A. Plot of Quantitative Real Time PCR analyses of mRNA expression changes of A549 cells treated with MCI13E, MCI13F and Cisplatin. Data represents the average of four separate Q-RT PCR Assays. Genes of interest were normalized to GAPDH transcript levels, and are presented as fold changes relative to untreated cell samples. Cisplatin treatment increases transcription of DDB2 (A). Referring now to FIG. 15B. Bar graph of P21/GAPDH measured in cells subjected to different treatment schemes. Referring now to FIG. 15C. Bar graph of XPC/GAPDH measured under different treatment regimes XPC Concurrent MCI/Cisplatin treated cells show a decrease in gene transcription when compared to cells treated with Cisplatin alone (24 hour).

A549 cells = experiment: Cell cycle analysis by PI staining, A549; assay type: cell-based; conditions: A549, increasing doses
Description: Referring now to FIG. 12A and FIG. 12B. Cell Cycle Analysis of Lung Cancer Cell Lines Following Treatment with MCI13E. A549. Referring now to FIG. 12C, and FIG. 12D. H460 were treated as indicated and analyzed for the cell cycle distribution using PI staining and flow cytometry. Quantification of data following 6 hours and 12 hour treatment with 10 and 20 μM MCI13E was performed for both A549 (FIG. 12E) and H460 (FIG. 12F) Data presented represent the averages of three replicate experiments.
Cell cycle analysis was also performed on the three lung cancer cell lines using PI staining to identify the potential arrest resulting from treatment with SMIs. Briefly, cells were plated in 6-well dishes (2×10^5 cells total) and treated for 6 or 12 hours with increasing concentration of inhibitor. Adherent and non-adherent cells were collected, washed twice with PBS containing 2% bovine serum albumin (BSA), resuspended in 70% cold EtOH and incubated overnight at −20° C. Cells were again collected and stained with PI (1 μg/mL) and RNaseA (25 μg/mL) for 30 min. at 37° C. followed by 1.5 hours at 4° C. in the dark. Flow cytometry was performed as above and data were analyzed on a histogram with events plotted against the FL2-A parameter. Cell cycle distribution was analyzed using the ModFit software and data presented represents three independent trials.

A2780 cells = experiment: CCK-8 cell viability assay, A2780; assay type: cell-based; conditions: 24 hours of treatment
Description: as §1
Ovarian cancer cell line, A2780, cells are difficult to use for crystal violet analysis due to their enhanced sensitivity to treatment. Therefore, the cell counting kit-8 (CCK) was used to determine the viability of A2780 cells in addition to the p53 null lung cancer cell line H1299, following a 24 hour treatment with log dosing of SMI. Cells were plated (1×10^5) in 24-well dishes and treated with inhibitor after 24 hours. After treatment media was aspirated and 1 ml of DMEM was added in addition to 100 μL of CCK-8 solution. Absorbance at 450 nm was measured over 4 hours in a SpectraMax M5 plate reader and values are presented as the percent untreated control at the two hour time point for three separate plate replicates each containing three assays per plate.

## CC1(C)C2CCC1(C)C(OC(=O)CBr)C2 (racemic) [MCI13E, (+/−)-Isobornyl bromoacetate]
H1299 cells
  Induction of apoptosis: indicative of the induction of apoptosis
SpPot1(DBD)
  Effect on SpPot1(DBD) ssDNA binding: no significant inhibition
p21
  p21 mRNA expression, single agent: only slightly increases the expression level of p21
A549 cells
  Cell cycle distribution: greater proportion of cells in the G1 phase
A2780 cells
  IC50: ~1000 nM

## CC1(C)C2CCC1(C)C(OC(=O)CI)C2 (racemic) [MCI13F, (+/−)-Isobornyl iodoacetate]
SpPot1(DBD)
  Effect on SpPot1(DBD) ssDNA binding: no significant inhibition
p21
  p21 mRNA expression, single agent: only slightly increases the expression level of p21
